These results are taken from PubChem BioAssay (NCI).

Molecules are shown by their SMILES.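 How tested: cells in 96-well plates exposed to compound for 48 hours at five concentrations. GI50: concentration for 50% inhibition of growth. TGI denotes the concentration required for complete inhibition of growth.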 Some results are limits rather than exact numbers.

Holding throughout (experiment): DTP human tumour cell line panel, 48 h
Experiment [1] has as its system K-562 leukemia.
In experiment [2] the test system is A498 renal.
In experiment [3] the test system is RXF 393 renal.
The test system of experiment [4] is HCT-116 colon.
For experiment [5], the system named is SW-620 colon.
Experiment [6] deals with MCF7 breast.
The subject of experiment [7] is KM12 colon.
In experiment [8] the test system is HS 578T breast.
For experiment [9], the system named is NCI-H226 lung.
In experiment [10] the test system is COLO 205 colon.

In general, GI50 refers to the concentration that inhibits growth by half. One may read the TGI as the concentration giving total growth inhibition.

For `OCc1ccc(-c2nc(-c3ccc4c(c3)OCO4)c(-c3ccccn3)[nH]2)cc1`, the GI50 in experiment [1] was > 25 µM; in experiment [2], > 25 µM; in [3], > 16.5 µM; in experiment [4] it was > 25 µM; in [5], > 25 µM; in [6], > 25 µM. The GI50 in experiment [7], in [8], in experiment [9] and in experiment [10] was > 25 µM in each case. The TGI in experiment [1], in [2], in [3], in experiment [4], in experiment [5] and in experiment [6] was > 25 µM each time. For the same compound, the TGI in experiment [7], in experiment [8], in [9] and in experiment [10] was > 25 µM each time.

In the case of `CCOC(=O)Cc1csc(NC(=O)C(OC(=O)c2ccc(Cl)cc2)c2ccccc2)n1` (stereo not given), the GI50 was 27.1 µM in experiment [1]; > 100 µM in experiment [2]; 28.6 µM in experiment [3]; 29 µM in experiment [4]; 48.4 µM in [5]; 34 µM in [6]. The GI50 in experiment [7] was 38.9 µM; in [8] it was 54.8 µM; in [9], 54.4 µM; in experiment [10], 38.3 µM. For the same compound, the TGI in [1] was > 100 µM; in experiment [2], > 100 µM; in [3], 95.8 µM; in experiment [4], > 100 µM; in experiment [5] it was > 100 µM; in experiment [6] it was > 100 µM. Moreover, the TGI in experiment [7], in experiment [8], in [9] and in experiment [10] was > 100 µM in each case.

Turning to `O=S(O)O.O=S(O)O.[Co].[NH2-].[NH2-].[NH2-].[NH2-]`, the GI50 in experiment [1], in experiment [2], in experiment [3], in experiment [4], in experiment [5] and in experiment [6] was > 100 µM in each case. The GI50 in experiment [7], in experiment [8], in experiment [9] and in [10] was > 100 µM each time. Besides, the concentration for total growth inhibition (TGI) in experiment [1], in experiment [2], in experiment [3], in [4], in experiment [5] and in [6] was > 100 µM throughout. Also, the TGI in [7], in experiment [8], in experiment [9] and in experiment [10] was > 100 µM in each case.

On to `CCOC(=O)c1ccc(N2NC(=O)/C(=C/c3ccc([N+](=O)[O-])o3)C2=O)cc1`, for which the GI50 in [1] was 9.64 µM; in experiment [2] it was > 37 µM; in [3] it was 11.3 µM; in experiment [4] it was 8.37 µM; in experiment [5], 4.3 µM; in experiment [6], 17.4 µM. In addition, the GI50 is > 40.7 µM in experiment [7], > 45.6 µM in experiment [8], > 41 µM in experiment [9] and 4.06 µM in experiment [10]. The TGI is > 73.3 µM in experiment [1]; > 51.6 µM in [2]; 26 µM in [3]; 21.4 µM in experiment [4]; 9.38 µM in experiment [5]; 35.9 µM in experiment [6]. Further, the TGI in experiment [7] was > 55.3 µM; in experiment [8] it was > 75.1 µM; in [9] it was > 56.5 µM; in experiment [10], 9.46 µM.

Consider `CC(C)(C)c1cc(C[P+](c2ccccc2)(c2ccccc2)c2ccccc2)cc(C(C)(C)C)c1O`, for which the concentration for 50% growth inhibition (GI50) in [1] is 0.341 µM; in experiment [2], 0.451 µM; in [3], 1 µM; in experiment [4], 0.275 µM; in experiment [5] it was 0.528 µM; in experiment [6], 0.27 µM. Also, the GI50 in experiment [7] is 0.364 µM; in [8] it was 0.51 µM; in experiment [9], 1.45 µM; in experiment [10], 0.199 µM. Also, the TGI came out at 4.64 µM in experiment [1]; 3.69 µM in experiment [2]; 4.67 µM in experiment [3]; 10.2 µM in [4]; 12 µM in experiment [5]; 4.04 µM in experiment [6]. Moreover, the TGI in [7] turned out to be 1.51 µM; in [8] it was 17.1 µM; in experiment [9] it was 18.3 µM; in [10] it was 0.521 µM.

On to `O=C(Nc1ccc(I)cc1F)c1cc(Br)ccc1O`, for which the GI50 in [1] was 0.431 µM; in [2], 0.175 µM; in [3], 0.778 µM; in experiment [4] it was 0.411 µM; in [5], 0.849 µM; in experiment [6], 0.78 µM. The GI50 is 2.2 µM in experiment [7], 0.346 µM in [8], 1.28 µM in [9] and 3.83 µM in experiment [10]. In addition, the TGI was > 100 µM in [1]; 0.63 µM in experiment [2]; 3.6 µM in experiment [3]; 1.96 µM in experiment [4]; 9.47 µM in [5]; 7.76 µM in experiment [6]. For the same compound, the TGI was determined as 5.49 µM in [7], 2.62 µM in [8], 4.41 µM in experiment [9] and 13.4 µM in experiment [10].

For the compound `CCCN(CCC)c1ccc(/C=N/NC(=O)c2cccnc2)c(C)c1`, the GI50 in experiment [1] is 10.5 µM; in [2], 1.06 µM; in [3], 15.1 µM; in [4] it was 13.8 µM; in experiment [5], 14.8 µM; in [6], 17.7 µM. Besides, the GI50 is 11.9 µM in experiment [7], 13.9 µM in experiment [8], 12 µM in experiment [9] and 14.5 µM in experiment [10]. Moreover, the TGI came to 54.6 µM in experiment [1]; 3.54 µM in experiment [2]; 30.7 µM in experiment [3]; 29.3 µM in [4]; 35.7 µM in experiment [5]; 36.8 µM in experiment [6]. Further, the TGI in [7] was 24.5 µM; in experiment [8] it was 48.2 µM; in experiment [9], 26.3 µM; in experiment [10], 27.6 µM.
